Laboratory results published in patent publication US12419956B2, “Controlled drug release system of photoresponsive nanocarriers, methods of making and using thereof” (THE UNIVERSITY OF HONG KONG, priority 2020, dated 2025).

Columns and labels:
[1] = Photocleavage under 505 nm green LED light, determined by HPLC; assay type: physicochemical; conditions: free DTAEA in 50% acetonitrile/H2O, 50 mW/cm^2, 1 min
Method: The photocleavage mechanism of coumarin carbamate derivatives was reported as carbocation formation following with the addition of —OH group in aqueous solutions (FIG. 6a).^9 To quantitatively measure the photocleavage rate of free DTAEA, quartz cuvettes containing DTAEA in 50% acetonitrile/H2O was irradiated with 505 nm green LED light. At predetermined time points, the remaining DTAEA and released DEAdcCM were determined by high performance liquid chromatography (HPLC). […] The similar photocleavage process in DTAEA NPs took about 5 minutes for the completely consumption of DTAEA (FIG. 6c), which was slightly slow down compared to free DTAEA in the mixture of acetonitrile and water. […] Based on the photocleavage performance of DTAEA and DTNPs, the irradiation duration was set to be no less than 5 min with 505 nm green LED light at 50 mW/cm^2.

[2] = Systemic toxicity in treated tumor-bearing mice: body weight and H&E histology; assay type: in vivo, BALB/c nude mice; conditions: drug administration period (Day 0 to Day 10), 5 mg/kg I.V.
Method: (§1) Generally, WERI-Rb-1 cells were injected slowly into the vitreous cavity at the right eyes of Bulb/c nude mice for the tumor implantation. […] The light irradiation was performed at the right eyes immediately after injection. […] To evaluate the biodistribution, the mice were euthanized after the above treatment, and their eyes (both sides), heart, lung, liver, spleen and kidney were further exteriorized for ex vivo fluorescence imaging. […] Seven days after the intraocular injection of WERI-Rb-1-GFP-luc cells, the luminescence signals from the cells can be determined by in vivo imaging system for in situ monitoring of orthotopic ocular tumors. […] The dosage of drug administration was precisely controlled based on the body weight of mice and set as 5 mg/kg body weight. The I.V. injection of formulations was applied every two days for five times. […] During the treatment, bioluminescence from the tumors was detected for tumor growth monitoring. […] Considering individual differences, tumor growth curves (FIG. 14b) of different groups were obtained by setting the bioluminescence intensity on the day before treatment (Day 0) as the origin and determining the quantitative changes in the subsequent days. […] The histological patterns of tumor-bearing retina and main organs were studied by hematoxylin and eosin (H&E) staining (FIG. 15 and FIG. 16).

[3] = tested on: human umbilical vein endothelial cells (HUVEC); experiment: Light-triggered cellular uptake in HUVEC cells, fluorescence microscopy; assay type: cell-based
Method: We further investigated the cellular uptake of the photo-released DOX by fluorescence microscopy and flow cytometry. In this work, human umbilical vein endothelial cells (HUVEC) and human retinoblastoma cells (WERI-Rb-1) were employed to investigate the cellular uptake. The cells were treated with various formulations, including free DOX, DOX/DTNPs and DOX/DTNPs+light irradiation (hv).

[4] = tested on: WERI-Rb-1-GFP-luc orthotopic tumor; experiment: Therapeutic effect on orthotopic WERI-Rb-1-GFP-luc tumors, bioluminescence; assay type: in vivo, BALB/c nude mice; conditions: Day 25; 5 mg/kg I.V. every two days for five times; no irradiation
Method: as §1

SMILES	DTAEA cleaved [1]	body weight decrease [2]	red fluorescence intensity (DOX) in cells ([3]; HUVEC, no irradiation)	intracellular distribution of DOX fluorescence ([3]; without irradiation)	increase of bioluminescence intensity in eyes, compared to Day 0 [4] [folds]
CCN(CC)c1ccc2c(c1)OC(=C(C#N)C#N)C=C2COC(=O)NCCN(CCNC(=O)OCC1=CC(=C(C#N)C#N)Oc2cc(N(CC)CC)ccc21)CCNC(=O)OCC1=CC(=C(C#N)C#N)Oc2cc(N(CC)CC)ccc21 [DTAEA, (DEAdcCM)3-TAEA]	More than 90%	–	–	–	–
COc1cccc2c1C(=O)c1c(O)c3c(c(O)c1C2=O)C[C@@](O)(C(=O)CO)C[C@@H]3O[C@H]1C[C@H](N)[C@H](O)[C@H](C)O1 [free DOX, doxorubicin]	–	about 10%	as high as the irradiated group	observed in the cell nuclei	64.0
